Read-outs that look alike come from different tables or passages of the source.
Experiments:
[1] = system: MCF-7 human breast adenocarcinoma cells; test: Sulforhodamine B (SRB) cell proliferation assay, MCF-7; type: cell-based
Experimental: (§1) The cytotoxic effect (IC50 values, Table 4) was determined from dose–response curves.
(§2) Royleanones and doxorubicin (Doxo) were tested on human breast adenocarcinoma lines. […] HFF‐1 cells were cultured in DMEM/F‐12 supplemented with 10% FBS. All cells were maintained at 37 °C in a humidified atmosphere of 5% CO2. Cells were routinely tested for mycoplasma infection using the MycoAlert™ PLUS mycoplasma detection kit (Lonza).
(§3) For the evaluation of the effect of the compounds on cell proliferation, the SRB assay was performed. […] Cells were treated for 48 h with serial dilutions of the compounds (ranging from 0.1 to 30.0 µM). The effects on cell proliferation were assessed by SRB assay, as described, and IC50 values were determined for each cell line using the GraphPad Prism software version 7.0 (La Jolla, CA, USA).

[2] = system: non-tumorigenic foreskin fibroblasts HFF-1 cells; test: Sulforhodamine B (SRB) cell proliferation assay, HFF-1; type: cell-based, human
Experimental: as §1, §2, §3

[3] = system: MDA-MB-231 human breast adenocarcinoma cells; test: Sulforhodamine B (SRB) cell proliferation assay, MDA-MB-231; type: cell-based
Experimental: as §1, §2, §3

PKC-α = molecular target: T1, PKC-α (Bos taurus, UniProt P04409); test: Yeast PKC assay, PKC-α; type: cell-based, yeast (Saccharomyces cerevisiae)
T1 construct: expressed in transfected cells; host or cells: Saccharomyces cerevisiae
Excerpt: (§4) PKC isoforms are key targets for cancer therapy due to their significant roles in cancer development and progression. The selective-PKC-δ activation observed for RoyBz is well established. Nonetheless, it is important to understand the effect of Roy on PKC isoforms. Due to the specificity of the assay, it was decided to evaluate only few compounds: the natural ones Roy and DeRoy and two derivatives, one aromatic ester RoyBz and one aliphatic ester RoyPr[27] as PKC-α, -βI, -δ, -ε, and -ζ activators using the yeast PKC assay.
(§5) For the determination of EC50 values were considered the concentration of compound that caused 50% of the maximal growth inhibition caused by the positive controls (phorbol 12-myristate 13-acetate, PMA, for cPKCs and nPKCs; arachidonic acid, ARA, for PKCζ), which was set as 100%. Data are mean ± SEM of four independent experiments. nt, not tested; ND, non-determinable (when the maximal response achieved was lower than 50% growth inhibition).
(§6) The royleanones Roy, RoyBz and RoyPr were tested on the yeast assay as reported in[3]. Briefly, Saccharomyces cerevisiae cells individually expressing mammalian PKC-α, -βI, -δ, -ε, or -ζ, and control yeast (transformed with empty vector) obtained in previous works were used. Cells were grown in galactose selective medium in the presence of 0.1—30 μM of compounds (or 0.1% DMSO only) for approximately 42 h. Yeast growth was analyzed by counting the number of colony-forming units, after 2 days incubation at 30 °C. The growth of yeast transformed with the empty vector (control) was considered as 100%. From the dose–response curves obtained, EC50 (half maximal effective concentration) values were determined for the tested compounds.

PKC-βI = molecular target: T2, PKC-βI (Rattus norvegicus, UniProt P68403); test: Yeast PKC assay, PKC-βI; type: cell-based, yeast (Saccharomyces cerevisiae)
T2 construct: expressed in transfected cells; host or cells: Saccharomyces cerevisiae
T2 sequence (P68403 whole entry): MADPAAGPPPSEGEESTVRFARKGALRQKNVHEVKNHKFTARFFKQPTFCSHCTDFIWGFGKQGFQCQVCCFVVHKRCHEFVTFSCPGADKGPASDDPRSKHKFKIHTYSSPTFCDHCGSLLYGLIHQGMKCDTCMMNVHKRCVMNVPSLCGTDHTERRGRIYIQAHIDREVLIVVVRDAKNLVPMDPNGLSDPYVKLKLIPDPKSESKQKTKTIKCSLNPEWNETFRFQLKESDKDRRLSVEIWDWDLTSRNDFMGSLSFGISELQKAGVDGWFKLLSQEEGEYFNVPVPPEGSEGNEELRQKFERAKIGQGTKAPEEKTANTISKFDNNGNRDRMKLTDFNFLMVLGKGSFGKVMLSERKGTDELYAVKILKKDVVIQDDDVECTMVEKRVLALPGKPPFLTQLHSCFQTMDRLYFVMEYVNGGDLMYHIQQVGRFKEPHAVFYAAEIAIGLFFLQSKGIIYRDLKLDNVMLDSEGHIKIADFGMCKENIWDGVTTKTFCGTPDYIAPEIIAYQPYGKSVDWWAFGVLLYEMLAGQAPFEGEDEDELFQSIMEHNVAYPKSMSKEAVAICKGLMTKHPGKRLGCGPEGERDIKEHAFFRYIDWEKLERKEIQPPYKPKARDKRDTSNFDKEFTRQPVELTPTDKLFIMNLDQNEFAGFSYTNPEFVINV
Excerpt: as §4, §5, §6

PKC-ε = molecular target: T3, PKC-ε (Homo sapiens, UniProt Q02156); test: Yeast PKC assay, PKC-ε; type: cell-based
T3 construct: expressed in transfected cells; host or cells: Saccharomyces cerevisiae
T3 sequence (Q02156 1-737): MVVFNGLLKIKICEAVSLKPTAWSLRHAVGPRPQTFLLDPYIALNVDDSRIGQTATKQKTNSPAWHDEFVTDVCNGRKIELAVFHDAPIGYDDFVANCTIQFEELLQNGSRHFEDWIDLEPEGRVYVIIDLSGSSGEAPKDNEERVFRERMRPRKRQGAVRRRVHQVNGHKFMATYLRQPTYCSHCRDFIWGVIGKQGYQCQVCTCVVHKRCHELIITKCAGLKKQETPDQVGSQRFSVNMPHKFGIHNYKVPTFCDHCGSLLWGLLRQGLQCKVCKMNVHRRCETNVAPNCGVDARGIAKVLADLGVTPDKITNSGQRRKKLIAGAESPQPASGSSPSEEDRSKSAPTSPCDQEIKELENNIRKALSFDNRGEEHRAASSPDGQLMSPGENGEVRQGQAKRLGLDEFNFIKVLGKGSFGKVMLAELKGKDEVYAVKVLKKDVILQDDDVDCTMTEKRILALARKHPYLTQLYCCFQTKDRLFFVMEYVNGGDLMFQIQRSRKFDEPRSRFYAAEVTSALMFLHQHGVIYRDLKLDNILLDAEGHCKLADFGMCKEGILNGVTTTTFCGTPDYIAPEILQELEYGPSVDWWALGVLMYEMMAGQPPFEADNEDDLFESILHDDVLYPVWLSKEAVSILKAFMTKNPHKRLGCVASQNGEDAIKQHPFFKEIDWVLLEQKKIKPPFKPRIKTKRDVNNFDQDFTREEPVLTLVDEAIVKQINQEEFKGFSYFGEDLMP
Excerpt: as §4, §5, §6

[4] = system: MDA-MB-468 human breast adenocarcinoma cells; test: Sulforhodamine B (SRB) cell proliferation assay, MDA-MB-468; type: cell-based
Experimental: as §1, §2, §3

PKC-ζ = molecular target: T4, PKC-ζ (Mus musculus, UniProt Q02956); test: Yeast PKC assay, PKC-ζ; type: cell-based
T4 construct: expressed in transfected cells; host or cells: Saccharomyces cerevisiae
T4 sequence (Q02956 1-592): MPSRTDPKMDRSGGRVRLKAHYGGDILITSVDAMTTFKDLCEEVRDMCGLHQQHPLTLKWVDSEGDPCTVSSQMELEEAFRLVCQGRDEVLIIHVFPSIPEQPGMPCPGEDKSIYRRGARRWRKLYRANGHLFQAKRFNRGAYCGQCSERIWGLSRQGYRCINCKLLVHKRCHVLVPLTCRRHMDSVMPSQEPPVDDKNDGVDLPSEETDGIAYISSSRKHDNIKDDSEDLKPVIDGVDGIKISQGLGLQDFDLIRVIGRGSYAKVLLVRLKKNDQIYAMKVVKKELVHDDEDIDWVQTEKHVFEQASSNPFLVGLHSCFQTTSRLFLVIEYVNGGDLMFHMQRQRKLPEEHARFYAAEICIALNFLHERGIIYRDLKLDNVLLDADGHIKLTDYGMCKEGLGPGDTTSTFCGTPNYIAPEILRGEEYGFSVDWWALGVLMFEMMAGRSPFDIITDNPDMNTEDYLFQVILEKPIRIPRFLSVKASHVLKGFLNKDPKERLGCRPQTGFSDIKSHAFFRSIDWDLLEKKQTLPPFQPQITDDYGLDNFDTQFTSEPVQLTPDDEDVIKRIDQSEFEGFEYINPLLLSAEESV
Excerpt: as §4, §5, §6

[5] = system: MCF-7 human breast adenocarcinoma cells; conditions: cited from earlier work
PKC-δ [6] = molecular target: T5, PKC-δ (Rattus norvegicus, UniProt P09215); test: Yeast PKC assay, PKC-δ; type: cell-based
T5 construct: expressed in transfected cells; host or cells: Saccharomyces cerevisiae
T5 sequence (P09215 whole entry): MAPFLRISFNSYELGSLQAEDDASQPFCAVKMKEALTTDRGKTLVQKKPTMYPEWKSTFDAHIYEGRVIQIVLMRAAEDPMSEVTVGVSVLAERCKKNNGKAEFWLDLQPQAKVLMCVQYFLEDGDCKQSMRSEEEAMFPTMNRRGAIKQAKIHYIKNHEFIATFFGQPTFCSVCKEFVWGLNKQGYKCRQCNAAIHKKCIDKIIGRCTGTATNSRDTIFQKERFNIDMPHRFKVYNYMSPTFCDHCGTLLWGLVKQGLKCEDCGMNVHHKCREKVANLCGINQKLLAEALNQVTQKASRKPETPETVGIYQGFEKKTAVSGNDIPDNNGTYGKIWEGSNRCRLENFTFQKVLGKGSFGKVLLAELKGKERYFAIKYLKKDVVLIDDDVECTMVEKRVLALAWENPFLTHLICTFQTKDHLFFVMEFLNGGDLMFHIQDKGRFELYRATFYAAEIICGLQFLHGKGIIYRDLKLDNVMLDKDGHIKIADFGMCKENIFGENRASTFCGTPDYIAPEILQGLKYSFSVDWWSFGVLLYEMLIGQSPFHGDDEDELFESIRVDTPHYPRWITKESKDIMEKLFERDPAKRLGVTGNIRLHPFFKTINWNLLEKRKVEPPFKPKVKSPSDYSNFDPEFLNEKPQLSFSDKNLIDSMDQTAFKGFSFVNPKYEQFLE
Excerpt: as §4, §5, §6

PKC-δ [7] = molecular target: T5, PKC-δ; parameters: method as in PMID 29348560; conditions: yeast PKC assay; cited from earlier work
[8] = Homo sapiens, MCF7, 48 h treatment
[9] = Homo sapiens, HFF-1, 48 h treatment
[10] = Homo sapiens, MDA-MB-231, 48 h, 48 h treatment
[11] = yeast growth inhibition, 50% of maximal effect of PMA, mean ± SEM, four experiments, ND = maximal response lower than 50% growth inhibition, read-out: EC50 (nM) PKC-α
[12] = yeast growth inhibition, 50% of maximal effect of PMA, mean ± SEM, four experiments, ND = maximal response lower than 50% growth inhibition, read-out: EC50 (nM) PKC-βI
[13] = yeast growth inhibition, 50% of maximal effect of PMA, mean ± SEM, four experiments, ND = maximal response lower than 50% growth inhibition, read-out: EC50 (nM) PKC-ε
[14] = Homo sapiens, MDA-MB-468, 48 h, 48 h treatment
[15] = yeast growth inhibition, 50% of maximal effect of ARA, mean ± SEM, four experiments, ND = maximal response lower than 50% growth inhibition, read-out: EC50 (nM) PKC-ζ
[16] = yeast growth inhibition, 50% of maximal effect of PMA, mean ± SEM, four experiments, ND = maximal response lower than 50% growth inhibition, read-out: EC50 (nM) PKC-δ
[17] = Homo sapiens, MDA-MB-231, 48 h treatment
[18] = Homo sapiens, MDA-MB-468, 48 h treatment

CC(=O)OC1C2=C(C(=O)C(O)=C(C(C)C)C2=O)C2(C)CCCC(C)(C)C2C1O (stereo not drawn) [Roy, 7α-acetoxy-6β-hydroxyroyleanone]
IC50 [1, 8]: 2090 ± 420 nM | IC50 [2, 9]: 1020 ± 280 nM | IC50 ([3]; 48 h treatment): 350 ± 120 nM | IC50 [3, 10]: 300 nM | EC50 (PKC-α; [11]): 350 ± 42 nM | EC50 (PKC-βI; [12]): 423 ± 67 nM | EC50 (PKC-ε; [13]): 994 ± 63 nM | IC50 ([4]; 48 h treatment): 300 ± 160 nM | IC50 [4, 14]: 350 nM | EC50 (PKC-ζ; [15]): 4110 ± 159 nM

CC(C)C1=C(O)C(=O)C2=C(C1=O)[C@H](O)[C@@H](O)[C@H]1C(C)(C)CCC[C@]21C [DiRoy, 6β,7α-dihydroxyroyleanone]
IC50 [1, 8]: > 20000 nM | IC50 [3, 10]: > 20000 nM | IC50 [4, 14]: > 20000 nM

CCC(=O)OC1=C(C(C)C)C(=O)C2=C(C1=O)C1(C)CCCC(C)(C)C1C(OC(=O)CC)C2OC(C)=O (stereo not drawn) [RoyPr, 7α-acetoxy-6β-propanoyloxy-12-O-propanoylroyleanone]
IC50 [5]: 28300 ± 2400 nM | EC50 (PKC-α; [11]): 195 ± 16 nM | EC50 (PKC-βI; [12]): 229 ± 21 nM | EC50 (PKC-ε; [13]): 770 ± 46 nM | EC50 (PKC-δ [6]; [16]): 325 ± 49 nM

CC(=O)O[C@H]1C2=C(C(=O)C(OC(=O)c3ccccc3)=C(C(C)C)C2=O)[C@@]2(C)CCCC(C)(C)[C@@H]2[C@@H]1OC(=O)c1ccccc1 [RoyBz, 7α-acetoxy-6β-benzoyloxy-12-O-benzoylroyleanone]
IC50 [1, 8]: 1660 ± 100 nM | IC50 [2, 9]: 3580 ± 270 nM | IC50 [3, 17]: 1500 ± 850 nM | EC50 (PKC-δ [7]): 108 nM | IC50 [4, 18]: 1400 ± 80 nM

CC(=O)OC1=C(C(C)C)C(=O)C2=C(C1=O)C1(C)CCCC(C)(C)C1C(O)C2OC(C)=O (stereo not drawn) [Roy-12-Ac, 7α-acetoxy-6β-hydroxy-12-O-acetylroyleanone]
IC50 ([1]; 48 h treatment): 5670 ± 240 nM | IC50 ([2]; 48 h treatment): 600 ± 40 nM | IC50 ([3]; 48 h treatment): 2430 ± 150 nM | IC50 ([4]; 48 h treatment): 1600 ± 160 nM

CCCCC/C=C\C/C=C\C/C=C\C/C=C\CCCC(=O)O [ARA, arachidonic acid, reference compound]
EC50 (PKC-ζ; [15]): 205 ± 32.6 nM

CC(=O)O[C@H]1C2=C(C(=O)C(OC(=O)c3ccccc3)=C(C(C)C)C2=O)[C@@]2(C)CCCC(C)(C)[C@@H]2[C@@H]1O [Roy-12-Bz, 7α-acetoxy-6β-hydroxy-12-O-benzoylroyleanone]
IC50 [1, 8]: 4320 ± 240 nM | IC50 [2, 9]: 1160 ± 220 nM | IC50 [3, 10]: 1650 ± 150 nM | IC50 [4, 14]: 1280 nM

CC(=O)OC1=C(C(C)C)C(=O)C2=C(C1=O)C1(C)CCCC(C)(C)C1C(OC(C)=O)C2OC(C)=O (stereo not drawn) [RoyAc, 7α,6β-diacetoxy-12-O-acetylroyleanone]
IC50 ([1]; 48 h treatment): 4250 ± 570 nM | IC50 ([2]; 48 h treatment): 4970 ± 340 nM | IC50 ([3]; 48 h treatment): 1860 ± 90 nM | IC50 ([4]; 48 h treatment): 3250 ± 200 nM

CCCCCCCCCCCCCC(=O)O[C@@H]1[C@@H](C)[C@@]2(O)[C@@H](C=C(CO)C[C@]3(O)C(=O)C(C)=C[C@@H]23)[C@@H]2C(C)(C)[C@]12OC(C)=O [PMA, phorbol 12-myristate 13-acetate, reference compound]
EC50 (PKC-α): 112 ± 18.4 nM | EC50 (PKC-βI): 243 ± 69.1 nM | EC50 (PKC-ε): 1680 ± 46.5 nM | EC50 (PKC-δ [6]): 574 ± 36.7 nM

COc1cccc2c1C(=O)c1c(O)c3c(c(O)c1C2=O)C[C@@](O)(C(=O)CO)C[C@@H]3O[C@H]1C[C@H](N)[C@H](O)[C@H](C)O1 [Doxo, Doxorubicin, reference compound]
IC50 [1, 8]: 600 ± 10 nM | IC50 [2, 9]: 100 ± 120 nM | IC50 [3, 17]: 1200 ± 50 nM | IC50 [4, 18]: 300 ± 40 nM

CC(C)C1=C(O)C(=O)C2=C(C=C[C@H]3C(C)(C)CCC[C@]23C)C1=O [DeRoy, 6,7-dehydroroyleanone]
IC50 [5]: 60400 ± 3690 nM | EC50 (PKC-α; [11]): 15 ± 1.9 nM | EC50 (PKC-ε; [13]): 5.8 ± 0.7 nM | EC50 (PKC-δ [6]; [16]): 3.1 ± 0.6 nM | EC50 (PKC-ζ): 43.8 ± 2.32 nM

Reference: publication PMC11266714, “Extraction optimization and reactivity of 7α-acetoxy-6β-hydroxyroyleanone and ability of its derivatives to modulate PKC isoforms” (Scientific Reports, 2024)
